Where “and” joins values, the source holds several entries; their conditions need not be identical. Equal entries are not always repeated.
Legend:
[1] = DPPH radical scavenging assay; type: biochemical; settings: mean ± SEM of three experiments
Procedure: The antioxidant potential of all target compounds (3–9) was determined using DPPH radical scavenging assay in comparison with ascorbic acid (AA) as the control treatment.
The mechanism of antioxidants as DPPH radical scavengers is based on their hydrogen-donation ability as hydrogen atoms or an electron transfer from the compound to the DPPH to form DPPH-H. The results of DPPH reduction are presented in Table 2, Figure 7.
The DPPH scavenging activity of all novel synthesized compounds (3–9) was measured as previously described (see Supplementary Materials).
1-Biological Evaluation Details: a-In-vitro Assays for biological antioxidant Activity
- DPPH scavenging method.
A 96-well plate was filled with 100 µL of the investigated compounds at various concentrations (12.5, 25, 50, 100, and 200 µg/mL ). The plate was then incubated at room temperature for 30 min while being protected from light by adding 100 µL of 100µM DPPH methanolic solution to each well. At a λ517 nm. the solution's absorbance was measured.
The positive control was ascorbic acid, and the negative control was DMSO. According to the following equation, the percentage of DPPH scavenging activity was determined:
% of DPPH scavenging = [(A control -A sample) / A control] x100. where A control is the absorbance of the control reaction (with all reagents except the test compound), and A sample is the absorbance of the test sample. Linear regression analysis was performed to calculate drug concentration showing 50% free radical inhibition activity (IC50). All tests were performed in triplicates. […]

[2] = Hydrogen peroxide scavenging assay; type: biochemical; settings: mean ± SEM of three experiments
Procedure: H2O2 assay is used to estimate the scavenging power of the target compounds (4–9) to H2O2.
The hydrogen peroxide (H2O2) scavenging activity of all novel synthesized compounds 3–9 was measured as previously reported (see Supplementary Materials).
1-Biological Evaluation Details: a-In-vitro Assays for biological antioxidant Activity […]
Linear regression analysis was performed to calculate drug concentration showing 50% free radical inhibition activity (IC50). All tests were performed in triplicates.
-Scavenging of hydrogen peroxide
In this method, the decay or loss of hydrogen peroxide can be quantified spectrophotometrically at 230 nm when a scavenger is incubated with it. The procedure was applied with a few changes. In phosphate buffered saline, hydrogen […]
peroxide (20 mM) solution was prepared in phosphate buffered saline (PBS, pH 7.4). In order to make different concentrations of 1 ml of the tested substances (3–9) or standards in methanol, 2 ml of hydrogen peroxide solution in PBS was added. After 10 minutes, the absorbance of H2O2 was measured at 230 nm in comparison to an ascorbic acid (AA) reference solution that contained phosphate buffer but no H2O2.
% of H2O2 scavenging = [(A control -A sample) / A control] x100. […]

[3] = Lipid peroxidation assay (FeCl2/H2O2-stimulated linoleic acid peroxidation); type: biochemical; settings: mean ± SEM of three experiments
Soybean 15-LOX enzyme = target: T1, Soybean 15-LOX enzyme (Glycine max, UniProt P08170); assay: In vitro 15-lipoxygenase inhibition (Cayman Lipoxygenase Inhibitor Screening Assay Kit); type: biochemical; settings: Soybean 15-LOX, arachidonic acid substrate; mean ± SEM of three experiments
T1 construct: purchased Cayman Chemical 760700
T1 sequence (P08170 1-839): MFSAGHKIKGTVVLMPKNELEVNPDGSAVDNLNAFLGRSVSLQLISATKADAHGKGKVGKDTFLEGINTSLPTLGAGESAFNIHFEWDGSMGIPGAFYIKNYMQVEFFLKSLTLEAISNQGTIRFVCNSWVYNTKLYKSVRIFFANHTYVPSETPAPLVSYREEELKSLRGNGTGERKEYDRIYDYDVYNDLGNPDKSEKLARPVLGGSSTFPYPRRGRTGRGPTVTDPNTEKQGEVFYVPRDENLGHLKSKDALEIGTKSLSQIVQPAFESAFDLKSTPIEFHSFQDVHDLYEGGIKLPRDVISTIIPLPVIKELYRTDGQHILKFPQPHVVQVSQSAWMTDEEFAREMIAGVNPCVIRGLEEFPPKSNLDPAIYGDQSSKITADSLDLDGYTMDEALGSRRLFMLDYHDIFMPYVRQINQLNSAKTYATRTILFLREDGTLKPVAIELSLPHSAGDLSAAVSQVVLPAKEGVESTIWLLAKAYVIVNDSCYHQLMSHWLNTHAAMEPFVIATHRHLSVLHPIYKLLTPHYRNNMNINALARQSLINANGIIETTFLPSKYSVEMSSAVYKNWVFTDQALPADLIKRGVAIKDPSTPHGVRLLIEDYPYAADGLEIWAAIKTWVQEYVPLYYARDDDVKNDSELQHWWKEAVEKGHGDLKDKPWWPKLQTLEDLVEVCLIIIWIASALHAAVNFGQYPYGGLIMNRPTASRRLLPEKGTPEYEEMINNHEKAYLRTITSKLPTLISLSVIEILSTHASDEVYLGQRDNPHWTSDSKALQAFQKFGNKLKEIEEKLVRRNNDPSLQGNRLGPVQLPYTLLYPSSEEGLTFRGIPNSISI
Procedure: 90 µL of 15-LOX was pipetted into a 96-well plate quickly. The test chemical was then dissolved in DMSO in 10 µL portions at concentrations of 2.5 µM, 5.0 µM, and 10 µM and added to each well. Arachidonic acid, a 110 µL substrate, was added to start the reaction, and the plate was shaken for at least five minutes. In order to interrupt enzyme catalysis and advance the reaction, 100 µL of chromogen was added to each well and made in accordance with the manufacturer’s instructions. In blank wells, 100 µL of assay buffer (0.1 M Tris-HCl, pH 7.4) was utilized. […] The solution’s absorbance was determined at λ 490–500 nm. The percentage inhibition was calculated according to the following equation:% inhibition = [(IA − Ainhibitor sample)/IA] × 100(1) where (IA) is the 100% initial activity and (Ainhibitor sample) is the absorbance of the test sample. A dose-response curve was plotted between % inhibition and the drug concentration. The non-linear dose-response curve was used for calculating drug concentration showing 50% enzyme inhibition.

## O=C1O[C@H]([C@@H](O)CO)C(O)=C1O [Ascorbic acid, reference compound]
[1]
  DPPH IC50: 12.80 ± 0.90 µg/mL
[2]
  H2O2 IC50: 23.0 ± 1.37 µg/mL
[3]
  Lipid Peroxidation IC50: 36.0 ± 1.30 µg/mL

## CC(=O)c1cccc(NS(=O)(=O)c2c[nH]c(=S)[nH]c2=O)c1 [Compound 3, N-(3-Acetylphenyl)-4-oxo-2-thioxo-1,2,3,4-tetrahydropyrimidine-5-sulfonamide]
[1]
  DPPH IC50: 80.0 ± 0.70 µg/mL
[2]
  H2O2 IC50: >100 µg/mL
[3]
  Lipid Peroxidation IC50: >100 µg/mL
other
  melting point: 318 to 320 °C

## O=C(C=Cc1cccc([N+](=O)[O-])c1)c1cccc(NS(=O)(=O)c2c[nH]c(=S)[nH]c2=O)c1 [Compound 4a, N-{3-[(2E)-3-(3-nitrophenyl)prop-2-enoyl]phenyl}-4-oxo-2-thioxo-1,2,3,4-tetrahydro pyrimidine-5-sulfonamide]
[1]
  DPPH IC50: 50.5 ± 0.79 µg/mL
[2]
  H2O2 IC50: >100 µg/mL
[3]
  Lipid Peroxidation IC50: >100 µg/mL
other
  melting point: 240 to 242 °C

## O=C(/C=C/c1cccc(Cl)c1)c1cccc(NS(=O)(=O)c2c[nH]c(=S)[nH]c2=O)c1 [Compound 4b, N-{3-[(2E)-3-(3-chlorophenyl)prop-2-enoyl]phenyl}-4-oxo-2-thioxo-1,2,3,4-tetra hydropyrimidine-5-sulfonamide]
[1]
  DPPH IC50: 44.3 ± 1.67 µg/mL
[2]
  H2O2 IC50: 95.0 ± 1.40 µg/mL
[3]
  Lipid Peroxidation IC50: >100 µg/mL
other
  melting point: 283 to 285 °C

## O=C(/C=C/c1cccc(F)c1)c1cccc(NS(=O)(=O)c2c[nH]c(=S)[nH]c2=O)c1 [Compound 4c, N-{3-[(2E)-3-(3-fluorophenyl)prop-2-enoyl]phenyl}-4-oxo-2-thioxo-1,2,3,4-tetra hydropyrimidine-5-sulfonamide]
[1]
  DPPH IC50: 43.0 ± 0.50 µg/mL
[2]
  H2O2 IC50: >100 µg/mL
[3]
  Lipid Peroxidation IC50: >100 µg/mL
other
  melting point: 270 to 272 °C

## Cc1cccc(/C=C/C(=O)c2cccc(NS(=O)(=O)c3c[nH]c(=S)[nH]c3=O)c2)c1 [Compound 4d, N-{3-[(2E)-3-(3-methylphenyl)prop-2-enoyl]phenyl}-4-oxo-2-thioxo-1,2,3,4-tetra hydropyrimidine-5-sulfonamide]
[1]
  DPPH IC50: 40.0 ± 1.70 µg/mL
[2]
  H2O2 IC50: 80.0 ± 0.70 µg/mL
[3]
  Lipid Peroxidation IC50: >100 µg/mL
other
  melting point: 287 to 289 °C

## CNC(=S)NN=C(C)c1cccc(NS(=O)(=O)c2c[nH]c(=S)[nH]c2=O)c1 [Compound 5a, N-{3-[(1E)-N-(methylcarbamothionyl)ethanhydrazonoyl]phenyl}-4-oxo-2-thioxo-1,2,3,4-tetrahydropyrimidine-5-sulfonamide]
[1]
  DPPH IC50: 14.50 ± 0.72 µg/mL
[2]
  H2O2 IC50: 41.0 ± 1.53 µg/mL
[3]
  Lipid Peroxidation IC50: 90.0 ± 1.45 µg/mL
Soybean 15-LOX enzyme
  IC50: 5.79 ± 0.01 µM
other
  melting point: 305 to 307 °C

## CCNC(=S)NN=C(C)c1cccc(NS(=O)(=O)c2c[nH]c(=S)[nH]c2=O)c1 [Compound 5b, N-{3-[(1E)-N-(ethylcarbamothionyl)ethanhydrazonoyl]phenyl}-4-oxo-2-thioxo-1,2,3,4-tetrahydropyrimidine-5-sulfonamide]
[1]
  DPPH IC50: 14.70 ± 0.22 µg/mL and 14.00 ± 0.22 µg/mL
[2]
  H2O2 IC50: 40.0 ± 1.32 µg/mL
[3]
  Lipid Peroxidation IC50: 85.0 ± 1.03 µg/mL
Soybean 15-LOX enzyme
  IC50: 5.7 ± 0.03 µM
other
  melting point: 310 to 312 °C

## COc1ccc(NC(=S)NN=C(C)c2cccc(NS(=O)(=O)c3c[nH]c(=S)[nH]c3=O)c2)cc1 [Compound 5c, N-{3-[(1E)-N-(4-methoxycarbamothionyl)ethanhydrazonoyl]phenyl}-4-oxo-2-thioxo-1,2,3,4-tetrahydropyrimidine-5-sulfonamides]
[1]
  DPPH IC50: 9.0 ± 1.10 µg/mL
[2]
  H2O2 IC50: 45.05 ± 1.34 µg/mL
[3]
  Lipid Peroxidation IC50: 82.0 ± 1.40 µg/mL
Soybean 15-LOX enzyme
  IC50: 5.5 ± 0.02 µM
other
  melting point: 307 to 309 °C

## CC(=NNC(=S)Nc1ccc(F)cc1)c1cccc(NS(=O)(=O)c2c[nH]c(=S)[nH]c2=O)c1 [Compound 5d, N-{3-[(1E)-N-(4-fluorocarbamothionyl)ethanhydrazonoyl]phenyl}-4-oxo-2-thioxo-1,2,3,4-tetrahydropyrimidine-5-sulfonamides]
[1]
  DPPH IC50: 14.72 ± 1.11 µg/mL
[2]
  H2O2 IC50: 47.0 ± 1.38 µg/mL
[3]
  Lipid Peroxidation IC50: 95.0 ± 1.42 µg/mL
Soybean 15-LOX enzyme
  IC50: 5.9 ± 0.06 µM
other
  melting point: 313 to 315 °C

## N#Cc1c(-c2cccc([N+](=O)[O-])c2)cc(-c2cccc(NS(=O)(=O)c3c[nH]c(=S)[nH]c3=O)c2)[nH]c1=O [Compound 6a, N-{3-[5-cyano-4-(3-nitrophenyl)-6-oxo-1,6-dihydropyridin-2-yl]phenyl}-4-oxo-2-thioxo-1,2,3,4-tetrahydropyrimidine-5-sulfonamide]
[1]
  DPPH IC50: 28.0 ± 1.06 µg/mL
[2]
  H2O2 IC50: 31.0 ± 1.30 µg/mL
[3]
  Lipid Peroxidation IC50: 45.0 ± 1.52 µg/mL
Soybean 15-LOX enzyme
  IC50: 7.85 ± 0.01 µM
other
  melting point: 266 to 268 °C

## O=C(CBr)c1cccc(NS(=O)(=O)c2c[nH]c(=S)[nH]c2=O)c1 [Compound 8, N-[3-(bromoacetyl)phenyl]-4-oxo-2-thioxo-1,2,3,4-tetrahydropyrimidine-5-sulfonamide]
[1]
  DPPH IC50: 70.27 ± 1.17 µg/mL
[2]
  H2O2 IC50: >100 µg/mL
[3]
  Lipid Peroxidation IC50: >100 µg/mL
other
  melting point: 305 to 307 °C
